Data from patent publication US4062948A, “Dihydromocimycin antibiotics” (Gist-Brocades N.V., priority 1970, dated 1977).
Where a name gives a salt, the structure may show the parent alone.

Tests used:
Assay type in all cases: in vivo
[1] = growth promotion in pigs (Example III); conditions: control = 100
Method: The sodium salt of mocimycin as obtained in Example I, was pre-mixed with wheat flour which mixture, added to the feed, was administered to pigs. The amount of the antibiotic present in the feed (based on the weight of the feed) is given hereinbelow in Table VII, in which the average relative weights of the pigs after 6 and 12 weeks, respectively are given.

[2] = growth promotion in slaughter chickens (Example II); conditions: control = 100
Text: Slaughter chickens are given mocimycin in the form of the sodium salt obtained in Example 1, in a mixture with component of the feed (wheat flour), the amount of antibiotic in the feed (based on the weight of the feed) being as specified in the following Table, which gives the weight of the chickens after 3, 5 and 7 weeks.

[3] = test system: microorganism causing Treponema dysentery; test: pigs infected with Treponema dysentery (Example VI)
Text: Twenty pigs, 3 months old, were infected with the microorganism causing Treponema dysentery by administering to them feed mixed with a homogenous mixture of contents of the intestines and intestinal mucous membranes of two animals suffereing from the disease. The infected pigs were divided into four groups of five animals each and the animals were fed with the feed as a slurry diluted 1:1 with water for 1 week. The total amount of feed per animal was 1.2 kg each day and was given in two portions.
After 5 days, the first symptoms of the disease were observed from the thin faeces and confirmed by a microbiological investigation of the faeces and […] a week, the animals were treated as follows:
group 2: 100 ppm of tylosin were added to the feed;
group 3: 25ppm of dihydromocimycin were added to the feed; and
group 4: 50 ppm of dihydromocimycin were added to the feed.
The antibiotic-enriched feed was administered for a week. After that week, feed without any antibiotic was given again. Recovery from the infection was observed from the weights of the animals and from inspection samples of the faeces, macroscopically from their consistencies, and microscopically by means of a specific immuno-fluoroescence technique. During the test, one animal of each of groups 1, 3 and 4 died.
The results are shown in the following Table wherein the weights indicated are the averages at that time of the still living animals. The consistency of the faeces is indicated as follows:
+ means thin liquid; ± means thick liquid; - means normal. The results of the immuno-fluorescence technique are indicated quantitatively by indicating the number of Treponemas in the visual field: 5 means very crowded; 4 means many; 3 means about 10 Treponemas; 2 means 1 or 2 Treponemas, 1 means more visual fields necessary to find one Treponema, and - means negative.

CC=CC=CC1OC(O)(C(CC)C(=O)NCC=CC=C(C)C(OC)C(C)C2OC(C=CC=CC=C(C)C(=O)c3c(O)cc[nH]c3=O)C(O)C2O)C(O)C(O)C1(C)C (stereo not drawn) [sodium salt of mocimycin]
feed conversion ([1]; 5 ppm in feed, 6 weeks): 95
growth (average relative weight) ([1]; 5 ppm in feed, 6 weeks): 107
feed conversion ([1]; 5 ppm in feed, 12 weeks): 98
growth (average relative weight) ([1]; 5 ppm in feed, 12 weeks): 104.5
feed conversion ([1]; 10 ppm in feed, 6 weeks): 92.5
growth (average relative weight) ([1]; 10 ppm in feed, 6 weeks): 108.5
feed conversion ([1]; 10 ppm in feed, 12 weeks): 99
growth (average relative weight) ([1]; 10 ppm in feed, 12 weeks): 104
weight of chickens relative to control (control = 100) ([2]; 5 ppm in feed, 3 weeks): 104%
weight of chickens relative to control (control = 100) ([2]; 5 ppm in feed, 5 weeks): 103%
weight of chickens relative to control (control = 100) ([2]; 5 ppm in feed, 7 weeks): 103%
weight of chickens relative to control (control = 100) ([2]; 10 ppm in feed, 3 weeks): 107%
weight of chickens relative to control (control = 100) ([2]; 10 ppm in feed, 5 weeks): 105%
weight of chickens relative to control (control = 100) ([2]; 10 ppm in feed, 7 weeks): 104%
weight of chickens relative to control (control = 100) ([2]; 20 ppm in feed, 3 weeks): 109%
weight of chickens relative to control (control = 100) ([2]; 20 ppm in feed, 5 weeks): 107%
weight of chickens relative to control (control = 100) ([2]; 20 ppm in feed, 7 weeks): 105%

CC[C@H]1OC(=O)C[C@@H](O)[C@H](C)[C@@H](O[C@@H]2O[C@H](C)[C@@H](O[C@H]3C[C@@](C)(O)[C@@H](O)[C@H](C)O3)[C@H](N(C)C)[C@H]2O)[C@@H](CC=O)C[C@@H](C)C(=O)/C=C/C(C)=C/[C@@H]1CO[C@@H]1O[C@H](C)[C@@H](O)[C@@H](OC)[C@H]1OC [tylosin, reference compound]
Weights ([3]; tylosin 100 ppm group, after 1 week (start of antibiotics)): 22.2 kg
Weights ([3]; tylosin 100 ppm group, just before infection (baseline)): 24.4 kg
Weights ([3]; tylosin 100 ppm, after 2 weeks): 21.4 kg
Weights ([3]; tylosin 100 ppm, after 3 weeks): 23.2 kg
